Here are results for twelve compounds from patent US11459334B2, “Substituted pyrrolo[2,1-f][1,2,4]triazines as KIT and/or PDGFR-α inhibitors” (SHENZHEN TARGETRX, INC., priority 2018, dated 2022).

The target in one data set is Ba/F3 Kit D816V (Homo sapiens, UniProt P10721, D816V, cells depend on it). To be noted: read-out: Cell IC50 (nM) BaF3/Kit(D816V); 72 hours, CTG.
A short description of data set [1]: Metabolic stability evaluation, human liver microsome experiment. To be noted: human liver microsomes, pH 7.4, 1 μM compound, 0.5 mg/mL protein; for microsomal CLint at 1 μM: read-out: CL human liver microsome experiment; for half-life at 1 μM: read-out: T½ human liver microsome experiment. It counts as in vitro ADME. The method, then: (§1) Microsome experiment: human liver microsome: 0.5 mg/mL, Xenotech; rat liver microsome: 0.5 mg/mL, Xenotech; coenzyme (NADPH/NADH): 1 mM, Sigma Life Science; magnesium chloride: 5 mM, 100 mM phosphate buffer (pH 7.4).
(§2) Preparation of stock solution: a certain amount of the example compound powder and control compound powder were accurately weighed, and respectively dissolved to 5 mM with DMSO.
(§3) Preparation of phosphate buffer (100 mM, pH7.4): 150 mL of 0.5M potassium dihydrogen phosphate and 700 mL of 0.5M dipotassium hydrogen phosphate prepared beforehand were mixed, with pH of the mixture adjusted to 7.4 with 0.5M dipotassium hydrogen phosphate solution. Before use, the mixture was diluted by 5 folds with ultrapure water and magnesium chloride was added to obtain the phosphate buffer (100 mM), which contains 100 mM potassium phosphate, 3.3 mM magnesium chloride, and has pH 7.4.
(§4) NADPH regeneration system solution (containing 6.5 mM NADP, 16.5 mM G-6-P, 3 U/mL G-6-P D, 3.3 mM magnesium chloride) was prepared, and placed on wet ice before use.
(§5) Preparation of stop solution: a solution of 50 ng/mL propranolol hydrochloride and 200 ng/mL tolbutamide (internal standard) in acetonitrile. 25057.5 μL of phosphate buffer (pH 7.4) was taken into a 50 mL centrifuge tube, added with 812.5 μL of human liver microsome, and mixed well to obtain a liver microsome diluent with a protein concentration of 0.625 mg/mL. 25057.5 μL of phosphate buffer (pH 7.4) was taken into a 50 mL centrifuge tube, added with 812.5 μL of SD rat liver microsome, and mixed well to obtain a liver microsome diluent with a protein concentration of 0.625 mg/mL.
(§6) Incubation of the samples: the stock solutions of the corresponding compounds were respectively diluted to 0.25 mM with an aqueous solution containing 70% acetonitrile to obtain working solutions for later use. 398 μL of human liver microsome and rat liver microsome diluents were respectively taken and added to a 96-well incubation plate (N=2), added with 2 μL of 0.25 mM working solution respectively, and mixed well.
(§7) Determination of metabolic stability: 300 μL of pre-cooled stop solution was added to each well of a 96-well deep-well plate, and the plate was placed on ice as a stop plate. The 96-well incubation plate and the NADPH regeneration system were placed in a 37° C. water bath, shaken at 100 rpm, and pre-incubated for 5 minutes. 80 μL of incubation solution was taken out of each well of the incubation plate and added to the stop plate, mixed well, and supplemented with 20 μL of NADPH regeneration system solution to obtain the 0 min sample. Then 80 μL of NADPH regeneration system solution was added to each well of the incubation plate to initiate the reaction and start timing. The reaction concentration of the corresponding compound was 1 μM, and the protein concentration was 0.5 mg/mL. At 10, 30, and 90 minutes of reaction, 100 μL of the reaction solution was taken and added to the stop plate, and vortexed for 3 minutes to stop the reaction. The stop plate was centrifuged at 5000×g for 10 min at 4° C. 100 μL of supernatant was taken to a 96-well plate pre-added with 100 μL of distilled water, mixed well, and subjected to sample analysis by LC-MS/MS.
(§8) Data analysis: the peak areas of the corresponding compound and internal standard were detected through the LC-MS/MS system, and the ratio of the peak area of the compound to the internal standard was calculated.

Data set [2] is described as follows: Metabolic stability evaluation, rat liver microsome experiment. It counts as in vitro ADME. The settings on record: SD, rat liver microsomes, pH 7.4, 1 μM compound, 0.5 mg/mL protein; for microsomal CLint at 1 μM: read-out: CL rat liver microsome experiment; for half-life at 1 μM: read-out: T½ rat liver microsome experiment. The method, then:
as §1, §2, §3, §4, §5, §6, §7, §8

Regarding `[2H]C([2H])([2H])[C@](N)(c1ccc(F)cc1)c1cnc(N2CCN(c3ncnn4cc(-c5cnn(C)c5)cc34)CC2)nc1` [Compound T-2-S, (S)-1-(4-fluorophenyl)-1-(2-(4-(6-(1-methyl-1H-pyrazol-4-yl)pyrrolo[2,1-f][1,2,4]triazin-4-yl)piperazin-1-yl)pyrimidin-5-yl)ethan-2,2,2-d3-1-amine], the GI50 at Ba/F3 Kit D816V lay in the range of 1 to 50 nM.

Turning to `Cn1cc(-c2cc3c(N4CCN(c5ncc([C@](C)(N)c6ccc(F)cc6)cn5)CC4)ncnn3c2)cn1` [Compound A, (R)-1-(4-fluorophenyl)-1-(2-(4-(6-(1-methyl-1H-pyrazol-4-yl)pyrrolo[2,1-f][1,2,4]triazin-4-yl)piperazin-1-yl)pyrimidin-5-yl)ethan-1-amine, reference compound], in data set [1], the microsomal CLint at 1 μM was 28.8 µL/min/mg and the half-life at 1 μM worked out at 48.1 min. For the same compound, in data set [2], the microsomal CLint at 1 μM was 41.5 µL/min/mg and the half-life at 1 μM stood at 33.4 min.

On to `[2H]C1([2H])N(c2ncc([C@@](N)(c3ccc(F)cc3)C([2H])([2H])[2H])cn2)C([2H])([2H])C([2H])([2H])N(c2ncnn3cc(-c4cnn(C)c4)cc23)C1([2H])[2H]` [Compound T-6-S, (S)-1-(4-fluorophenyl)-1-(2-(4-(6-(1-methyl-1H-pyrazol-4-yl)pyrrolo[2,1-f][1,2,4]triazin-4-yl)piperazin-1-yl-2,2,3,3,5,5,6,6-d8)pyrimidin-5-yl)ethan-2,2,2-d3-1-amine], for which the microsomal CLint at 1 μM in data set [1] amounted to 13.1 µL/min/mg; in data set [2], 15.5 µL/min/mg. For the same compound, the half-life at 1 μM in data set [1] amounted to 105 min; in data set [2], 89.4 min. The GI50 on Ba/F3 Kit D816V fell in the range of 1 to 50 nM.

On to `[2H]C1([2H])N(c2ncc([C@@](C)(N)c3ccc(F)cc3)cn2)C([2H])([2H])C([2H])([2H])N(c2ncnn3cc(-c4cnn(C)c4)cc23)C1([2H])[2H]` [Compound T-4-S, (S)-1-(4-fluorophenyl)-1-(2-(4-(6-(1-methyl-1H-pyrazol-4-yl)pyrrolo[2,1-f][1,2,4]triazin-4-yl)piperazin-1-yl-2,2,3,3,5,5,6,6-d8)pyrimidin-5-yl)ethylamine], for which, in data set [1], the microsomal CLint at 1 μM was 15.3 µL/min/mg and the half-life at 1 μM is 90.5 min. Also, in data set [2], the microsomal CLint at 1 μM came out at 17.1 µL/min/mg and the half-life at 1 μM was 81.1 min. In addition, at Ba/F3 Kit D816V, the GI50 was in the range of 1 to 50 nM.

Regarding `[2H]C([2H])([2H])n1cc(-c2cc3c(N4CCN(c5ncc([C@](N)(c6ccc(F)cc6)C([2H])([2H])[2H])cn5)CC4)ncnn3c2)cn1` [Compound T-3-R, (R)-1-(4-fluorophenyl)-1-(2-(4-(6-(1-(methyl-d3)-1H-pyrazol-4-yl)pyrrolo[2,1-f][1,2,4]triazin-4-yl)piperazin-1-yl)pyrimidin-5-yl)ethan-2,2,2-d3-1-amine], the microsomal CLint at 1 μM in data set [1] worked out at 27 µL/min/mg; in data set [2] it was 37.2 µL/min/mg. Further, the half-life at 1 μM in data set [1] turned out to be 51.3 min; in data set [2], 37.3 min.

Regarding `[2H]C([2H])([2H])n1cc(-c2cc3c(N4CCN(c5ncc([C@@](N)(c6ccc(F)cc6)C([2H])([2H])[2H])cn5)CC4)ncnn3c2)cn1` [Compound T-3-S, (S)-1-(4-fluorophenyl)-1-(2-(4-(6-(1-(methyl-d3)-1H-pyrazol-4-yl)pyrrolo[2,1-f][1,2,4]triazin-4-yl)piperazin-1-yl)pyrimidin-5-yl)ethan-2,2,2-d3-1-amine], in data set [1], the microsomal CLint at 1 μM is 13 µL/min/mg and the half-life at 1 μM is 107 min. Moreover, in data set [2], the microsomal CLint at 1 μM worked out at 15.6 µL/min/mg and the half-life at 1 μM was 89.1 min. At Ba/F3 Kit D816V, the GI50 was in the range of 1 to 50 nM.

Take `[2H]C([2H])([2H])n1cc(-c2cc3c(N4C([2H])([2H])C([2H])([2H])N(c5ncc([C@@](N)(c6ccc(F)cc6)C([2H])([2H])[2H])cn5)C([2H])([2H])C4([2H])[2H])ncnn3c2)cn1` [Compound T-7-S, (S)-1-(4-fluorophenyl)-1-(2-(4-(6-(1-(methyl-d3)-1H-pyrazol-4-yl)pyrrolo[2,1-f][1,2,4]triazin-4-yl)piperazin-1-yl-2,2,3,3,5,5,6,6-d8)pyrimidin-5-yl)ethan-2,2,2-d3-1-amine]: the GI50 at Ba/F3 Kit D816V was in the range of 1 to 50 nM.

`[2H]C([2H])([2H])n1cc(-c2cc3c(N4CCN(c5ncc([C@@](C)(N)c6ccc(F)cc6)cn5)CC4)ncnn3c2)cn1` [Compound T-1-S, (S)-1-(4-fluorophenyl)-1-(2-(4-(6-(1-(methyl-d3)-1H-pyrazol-4-yl)pyrrolo[2,1-f][1,2,4]triazin-4-yl)piperazin-1-yl)pyrimidin-5-yl)ethylamine]: in data set [1], the microsomal CLint at 1 μM was determined as 15.6 µL/min/mg and the half-life at 1 μM worked out at 88.6 min. For the same compound, the GI50 on Ba/F3 Kit D816V fell in the range of 1 to 50 nM.

`Cn1cc(-c2cc3c(N4CCN(c5ncc([C@@](C)(N)c6ccc(F)cc6)cn5)CC4)ncnn3c2)cn1` [Avapritinib, (S)-1-(4-fluorophenyl)-1-(2-(4-(6-(1-methyl-1H-pyrazol-4-yl)pyrrolo[2,1-f][1,2,4]triazin-4-yl)piperazin-1-yl)pyrimidin-5-yl)ethylamine, reference compound]: in data set [1], the microsomal CLint at 1 μM amounted to 15.8 µL/min/mg and the half-life at 1 μM worked out at 87.6 min. In data set [2], the microsomal CLint at 1 μM was determined as 24.6 µL/min/mg and the half-life at 1 μM worked out at 56.3 min. The GI50 on Ba/F3 Kit D816V fell in the range of 1 to 50 nM.

Turning to `[2H]C1([2H])N(c2ncc([C@](N)(c3ccc(F)cc3)C([2H])([2H])[2H])cn2)C([2H])([2H])C([2H])([2H])N(c2ncnn3cc(-c4cnn(C)c4)cc23)C1([2H])[2H]` [Compound T-6-R, (R)-1-(4-fluorophenyl)-1-(2-(4-(6-(1-methyl-1H-pyrazol-4-yl)pyrrolo[2,1-f][1,2,4]triazin-4-yl)piperazin-1-yl-2,2,3,3,5,5,6,6-d8)pyrimidin-5-yl)ethan-2,2,2-d3-1-amine], in data set [1], the microsomal CLint at 1 μM came out at 24.2 µL/min/mg and the half-life at 1 μM amounted to 57.3 min. In addition, in data set [2], the microsomal CLint at 1 μM stood at 38.6 µL/min/mg and the half-life at 1 μM stood at 35.9 min.

For the compound `[2H]C1([2H])N(c2ncc([C@](C)(N)c3ccc(F)cc3)cn2)C([2H])([2H])C([2H])([2H])N(c2ncnn3cc(-c4cnn(C)c4)cc23)C1([2H])[2H]` [Compound T-4-R, (R)-1-(4-fluorophenyl)-1-(2-(4-(6-(1-methyl-1H-pyrazol-4-yl)pyrrolo[2,1-f][1,2,4]triazin-4-yl)piperazin-1-yl-2,2,3,3,5,5,6,6-d8)pyrimidin-5-yl)ethylamine], the microsomal CLint at 1 μM in data set [1] turned out to be 26 µL/min/mg; in data set [2], 27 µL/min/mg. Moreover, the half-life at 1 μM in data set [1] stood at 53.3 min; in data set [2], 51.4 min.

For the compound `[2H]C([2H])([2H])n1cc(-c2cc3c(N4C([2H])([2H])C([2H])([2H])N(c5ncc([C@@](C)(N)c6ccc(F)cc6)cn5)C([2H])([2H])C4([2H])[2H])ncnn3c2)cn1` [Compound T-5-S, (S)-1-(4-fluorophenyl)-1-(2-(4-(6-(1-(methyl-d3)-1H-pyrazol-4-yl)pyrrolo[2,1-f][1,2,4]triazin-4-yl)piperazin-1-yl-2,2,3,3,5,5,6,6-d8)pyrimidin-5-yl)ethylamine], the GI50 at Ba/F3 Kit D816V fell in the range of 1 to 50 nM.
